From patent US20200405715A1, “COMPOSITIONS AND METHODS FOR TREATING CANCER AND INFLAMMATORY DISEASES” (University of Pittsburgh - Of the Commonwealth System of …, priority 2016, published 2020) come the findings set out here.

One assay concerns Nedd8-cullin. Briefly: Cullin neddylation, protein immunoblotting in HepG2 cells. It is filed as cell-based. The following applies: 48 h at 10 uM (FIG. 2). An excerpt:
Cells were then collected and assayed for protein immunoblotting. […]
DCN1 protein is believed to harbor a UBC12 binding pocket. Scott et al, Cell 757:1671-84 (2014). […] Scott et al. (2014). The N-terminal acetylation acts as an avidity enhancer within an interconnected multiprotein complex. Science, 554:674-8 (2011). Specifically, n-terminal of UBC12 is acetylated (FIG. 1A, yellow) and completely buried inside the hydrophobic pocket within DCN1 (4gao.PDB, FIG. 1B). Small molecule inhibition of the DCN1 hydrophobic pocket would presumably disrupt UBC12 binding, and thus disrupt Neddylation of Cullin protein. Potential ligands were assessed that might fit the DCN1 domain cavities (FIG. 1B). 3-(pentylamino)-5-phenylcyclohex-2-en-1-one was selected for future testing (FIG. 1C). […] MLN4924 was used as a positive control.
Background: Immunoblotting shows a protein as a band on a membrane.

The next assay concerns HepG2 cells. Briefly: HepG2 cell proliferation (CellTiter-Glo Luminescent Cell Viability Assay). It is filed as cell-based. Particulars: Homo sapiens, 96 h, ATP production, n=3, read-out: IC50Proliferation. As to the method: Cell proliferation were then measured by CellTiter-Glo® Luminescent Cell Viability Assay (n=3).
4KHepG2 cells were seeded in 96 well plates for overnight. Compounds listed in Table 3 were then added to each well at various concentrations. 96 h later, cell proliferation was measured by ATP production using a CellTiter-Glo® Luminescent Cell Viability Assay (Promega).
3-(pentylamino)-5-phenylcyclohex-2-en-1-one was modified by adding a different sidechain. These novel compounds were tested further in an in vitro proliferation assay using ATPLite Cell Proliferation kit. […] Others lost activity in reducing Cullin Neddylation and inhibiting cell proliferation (FIG. 3C-D).
A general note: In ATP-based viability assays light output follows the ATP content of the culture.

In a further assay the test system is HepG2 tumor implants. The assay can be described thus: HepG2 tumor implants in nude mice, tumor growth. Format: in vivo, athymic nude mice. Particulars: compounds in drinking water (15 mg/kg/d), start at tumor size 0.1 cm^3 (FIG. 8). As to the method:
Mice were implanted with HepG2 cells (10^6 cells) through subcutaneous injection. 2 weeks later, once tumor size reaches ˜0.1 cm^3, mice were randomized and the treatment began by adding compounds to the drinking water ([…]). Tested compounds were: Vehicle, 3-(decylamino)-5-phenylcyclohex-2-en-1-one (BC1558), 3-(dibenzylamino)-5-phenylcyclohex-2-en-1-one (BC1634) or 3-((4-phenoxybenzyl)amino)-5-phenylcyclohex-2-en-1-one (BC1653). Tumor volume measurements over time were graphed (n=4-5 mice/group, *P<0.05 versus Vehicle).
As a complementary in vivo model, tumorogenicity was further assessed after implanting HepG2 cells along with 3-(decylamino)-5-phenylcyclohex-2-en-1-one, 3-(dibenzylamino)-5-phenylcyclohex-2-en-1-one, 3-((4-phenoxybenzyl)amino)-5-phenylcyclohex-2-en-1-one treatment in athymic nude mice. Mice were implanted with HepG2 cells through subcutaneous injection. Two weeks later, once tumor size reached 0.1 cm^3, the mice were randomized and the treatment began by adding compounds to the drinking water (15 mg/kg/d).

Assay [1] has as its system DSS induced colonic inflammation. Briefly: DSS induced colitis model. It is filed as in vivo, C57BL6 mice. The following applies: DSS in water. As to the method: FIGS. 12A-12D show DCN1 inhibitors reduce DSS induced colonic inflammation, specifically the following experimental results C57BL6 mice were fed with water ad lib containing 3% dextran sulfate sodium (DSS) for six days. DCN1 inhibitors were administered into drinking water at 10 mg/kg/d, starting at day 1. […] The data represent n=4 mice/group, *P<0.05 versus CON.
Also tested were 3-(decylamino)-5-phenylcyclohex-2-en-1-one (BC1558), 3-(dibenzylamino)-5-phenylcyclohex-2-en-1-one (BC1634) and 3-((4-phenoxybenzyl)amino)-5-phenylcyclohex-2-en-1-one (BC1653) in a mouse colitis model to confirm its anti-inflammatory activity. Briefly, C57BL6 mice were fed with water containing 3.5% […] and colonic length was measured. DSS produced a significant decrease in colon length in mice, consistent with colonic inflammation (FIG. 12A-B). […] Colonic tissue cytokine levels were further analyzed.

Some results are limits rather than exact numbers.

As to `CCCCCNC1=CC(=O)CC(c2ccccc2)C1` (stereo not drawn) [3-(pentylamino)-5-phenylcyclohex-2-en-1-one], in the assay with Nedd8-cullin, the “reducing cullin1 neddylation” value is “good activity”.

As to `CCCCCNC1=CC(=O)CC(c2ccccc2)C1` (stereo not drawn) [BC1526], in the assay with HepG2 cells, the IC50 lay within 1 to 10 µM.

For `CC(C)CCNC1=CC(=O)CC(c2ccccc2)C1` (stereo not drawn) [BC1532], the IC50 in the assay with HepG2 cells fell in the range of 1 to 10 µM.

Take `O=C1C=C(NC2CCCCC2)CC(c2ccccc2)C1` (stereo not drawn) [BC1534]: the IC50 in the assay with HepG2 cells was above 10 µM.

For `O=C1C=C(NCCc2ccccc2)CC(c2ccccc2)C1` (stereo not drawn) [BC1535], in the assay on HepG2 cells, the IC50 was in the range of 1 to 10 µM.

For the compound `CCC(C)NC1=CC(=O)CC(c2ccccc2)C1` (stereo not drawn) [BC1546], the IC50 in the assay with HepG2 cells was above 10 µM.

As for `O=C1C=C(NCc2ccccc2)CC(c2ccccc2)C1` (stereo not drawn) [BC1548], the IC50 in the assay with HepG2 cells lay in the range of 1 to 10 µM.

Consider `O=C1C=C(NC23CC4C[C@H](C2)C[C@@H](C4)C3)CC(c2ccccc2)C1` (stereo partly drawn) [BC1549], for which the IC50 with HepG2 cells is above 10 µM.

As to `O=C1C=C(NC2C[C@@H]3CCC2C3)CC(c2ccccc2)C1` (stereo partly drawn) [BC1550], in the assay on HepG2 cells, the IC50 fell in the range of 1 to 10 µM.

On to `CCCCCCCNC1=CC(=O)CC(c2ccccc2)C1` (stereo not drawn) [BC1552], for which the IC50 in the assay with HepG2 cells was below 1 µM.

As for `CCCCCCCCNC1=CC(=O)CC(c2ccccc2)C1` (stereo not drawn) [BC1554], the IC50 in the assay on HepG2 cells is below 1 µM.

Turning to `CCCCCCCCCNC1=CC(=O)CC(c2ccccc2)C1` (stereo not drawn) [BC1556], the IC50 in the assay with HepG2 cells was below 1 µM.

With `CCCCCCCCCCCNC1=CC(=O)CC(c2ccccc2)C1` (stereo not drawn) [BC1560], in the assay on HepG2 cells, the IC50 is below 1 µM.

On to `CCCCCCCCCCCCNC1=CC(=O)CC(c2ccccc2)C1` (stereo not drawn) [BC1562], for which, in the assay with HepG2 cells, the IC50 was below 1 µM.

`CCCCCCCCCCCCCCCCNC1=CC(=O)CC(c2ccccc2)C1` (stereo not drawn) [BC1564]: the IC50 with HepG2 cells was above 10 µM.

`O=C1C=C(NC(c2ccccc2)c2ccccc2)CC(c2ccccc2)C1` (stereo not drawn) [BC1621]: the IC50 in the assay with HepG2 cells is above 10 µM.

As to `O=C1C=C(NC2CCCCCCCCCCC2)CC(c2ccccc2)C1` (stereo not drawn) [BC1623], the IC50 in the assay on HepG2 cells was above 10 µM.

With `O=C1C=C(NC2CCC2)CC(c2ccccc2)C1` (stereo not drawn) [BC1625], the IC50 in the assay with HepG2 cells is above 10 µM.

In the case of `CC1(C)C2C[C@@H]1CCC2CNC1=CC(=O)CC(c2ccccc2)C1` (stereo partly drawn) [BC1627], in the assay with HepG2 cells, the IC50 fell in the range of 1 to 10 µM.

In the case of `O=C1C=C(NCc2ccc(-c3ccccc3)cc2)CC(c2ccccc2)C1` (stereo not drawn) [BC1629], in the assay with HepG2 cells, the IC50 is below 1 µM.

Turning to `O=C1C=C(NCc2cccc(-c3ccccc3)c2)CC(c2ccccc2)C1` (stereo not drawn) [BC1631], the IC50 in the assay on HepG2 cells is below 1 µM.

For the compound `O=C1C=C(NCC2CCCCC2)CC(c2ccccc2)C1` (stereo not drawn) [BC1633], in the assay with HepG2 cells, the IC50 is above 10 µM.

As to `O=C1C=C(N(Cc2ccccc2)Cc2ccccc2)CC(c2ccccc2)C1` (stereo not drawn) [BC1634, 3-(dibenzylamino)-5-phenylcyclohex-2-en-1-one], the “tumor size compared to the vehicle” value with HepG2 tumor implants is on record as “Significantly reduced tumor size”.

For `Cc1ccccc1-c1cccc(CNC2=CC(=O)CC(c3ccccc3)C2)c1` (stereo not drawn) [BC1640], in the assay with HepG2 cells, the IC50 fell in the range of 1 to 10 µM.

As to `Cc1ccccc1-c1cccc(CNC2=CC(=O)CC(c3ccc4c(c3)OCO4)C2)c1` (stereo not drawn) [BC1641], the IC50 in the assay with HepG2 cells is above 10 µM.

As to `CCCCCCCCCCNC1=CC(=O)CC(c2ccc3c(c2)OCO3)C1` (stereo not drawn) [BC1644], in the assay with HepG2 cells, the IC50 is above 10 µM.

As to `CCCCCCCCCCNC1=CC(=O)CC(c2ccco2)C1` (stereo not drawn) [BC1646], the IC50 in the assay on HepG2 cells is below 1 µM.

Take `CCCCCCCCCCNC1=CC(=O)CC(c2ccc(F)cc2)C1` (stereo not drawn) [BC1648]: the IC50 in the assay with HepG2 cells lay in the range of 1 to 10 µM.

In the case of `O=C1C=C(NCc2cccc(-c3ncccn3)c2)CC(c2ccccc2)C1` (stereo not drawn) [BC1650], the IC50 with HepG2 cells was in the range of 1 to 10 µM.

In the case of `O=C1C=C(NCc2cccc(Oc3ccccc3)c2)CC(c2ccccc2)C1` (stereo not drawn) [BC1651], the IC50 in the assay on HepG2 cells is below 1 µM.

Regarding `O=C1C=C(NCc2ccc(Oc3ccccc3)cc2)CC(c2ccccc2)C1` (stereo not drawn) [BC1653, 3-((4-phenoxybenzyl)amino)-5-phenylcyclohex-2-en-1-one], the “tumor size compared to the vehicle” value in the assay with HepG2 tumor implants is listed as “Significantly reduced tumor size”. Moreover, the IC50 in the assay with HepG2 cells is below 1 µM. The “colon length compared vehicle” value in assay [1] (compounds in drinking water at 10 mg/kg/d (FIG. 12A-B)) is “significant increase”. Besides, the “IL1β and IL6 levels in colonic tissue compared to vehicle” value in assay [1] (compounds in drinking water at 10 mg/kg/d (FIG. 12C-D)) is “large reduction”.

For `Cc1cccc(N2CCC(NC3=CC(=O)CC(c4ccccc4)C3)CC2)c1` (stereo not drawn) [BC1654], the IC50 in the assay on HepG2 cells is above 10 µM.

For `O=C1C=C(Nc2cnc(-c3ccccc3)nc2)CC(c2ccccc2)C1` (stereo not drawn) [BC1655], in the assay with HepG2 cells, the IC50 is above 10 µM.

On to `O=C1C=C(NCc2cnc(Nc3ccccc3)nc2)CC(c2ccccc2)C1` (stereo not drawn) [BC1656], for which the IC50 in the assay on HepG2 cells is above 10 µM.

Turning to `O=C1C=C(NCc2cnc(-c3ccccc3)nc2)CC(c2ccccc2)C1` (stereo not drawn) [BC1657], in the assay with HepG2 cells, the IC50 was 1 to 10 µM.

`O=C1C=C(NCc2nc3ccccc3[nH]2)CC(c2ccccc2)C1` (stereo not drawn) [BC1658]: in the assay with HepG2 cells, the IC50 is above 10 µM.

In the case of `O=C1C=C(NCc2ccc3[nH]c4ccccc4c3c2)CC(c2ccccc2)C1` (stereo not drawn) [BC1659], in the assay on HepG2 cells, the IC50 was below 1 µM.

As to `COc1ccc(Oc2ccc(CNC3=CC(=O)CC(c4ccccc4)C3)cc2)cc1` (stereo not drawn) [BC1660], the IC50 in the assay on HepG2 cells was in the range of 1 to 10 µM.

For `CC(NC1=CC(=O)CC(c2ccccc2)C1)c1ccc(Oc2ccccc2)cc1` (stereo not drawn) [BC1661], the IC50 with HepG2 cells was above 10 µM.

On to `O=C1C=C(NCc2ccc(Oc3ccc(F)cc3)cc2)CC(c2ccccc2)C1` (stereo not drawn) [BC1662], for which the IC50 in the assay with HepG2 cells was below 1 µM.

With `O=C1C=C(NCc2ccc(OC3CCCCC3)cc2)CC(c2ccccc2)C1` (stereo not drawn) [BC1663], the IC50 in the assay with HepG2 cells was below 1 µM.

With `CN1CCC(c2ccc(CNC3=CC(=O)CC(c4ccccc4)C3)cc2)CC1` (stereo not drawn) [BC1664], in the assay with HepG2 cells, the IC50 was above 10 µM.

For the compound `O=C1C=C(NCc2ccc(CN3CCCCC3)cc2)CC(c2ccccc2)C1` (stereo not drawn) [BC1665], in the assay with HepG2 cells, the IC50 was above 10 µM.

Regarding `O=C1C=C(NCc2ccc(OC3CCCC3)cc2)CC(c2ccccc2)C1` (stereo not drawn) [BC1666], the IC50 in the assay on HepG2 cells is below 1 µM.

Take `CC1CC(C)CN(Cc2ccc(CNC3=CC(=O)CC(c4ccccc4)C3)cc2)C1` (stereo not drawn) [BC1667]: the IC50 with HepG2 cells is above 10 µM.

On to `O=C1C=C(NCc2ccc(CN3CCOCC3)cc2)CC(c2ccccc2)C1` (stereo not drawn) [BC1668], for which the IC50 in the assay with HepG2 cells lay within 1 to 10 µM.

Turning to `COc1cc(CNC2=CC(=O)CC(c3ccccc3)C2)ccc1OC1CCCC1` (stereo not drawn) [BC1669], the IC50 in the assay on HepG2 cells is below 1 µM.

Turning to `O=C1C=C(NCc2ccc3oc4ccccc4c3c2)CC(c2ccccc2)C1` (stereo not drawn) [BC1670], the IC50 with HepG2 cells fell in the range of 1 to 10 µM.
